According to article PMC2826142 (Journal of medicinal chemistry, 2010):
pKi: −log10 of the molar value. “Also recorded” adds a separate entry of the source.

Key:
[1] = target: T1, human adenosine A2A receptor (Homo sapiens, UniProt P29274); assay: Functional cAMP accumulation assay; type: cell-based; details: 10 µM compound, 10 nM or 10 µM 3a
[2] = target: T1, human adenosine A2A receptor; assay: Radioligand displacement at A2AAR-HEK membranes; type: binding; details: for Max Displacement at A2AAR-HEK membranes: 10 µM of test compound; for A2A / A1 selectivity: mammalian membranes, A2AAR over A1AR
[3] = target: T2, human adenosine A1 receptor (Homo sapiens, UniProt P30542); assay: Radioligand; type: binding; details: for inhibition at 10 µM: read-out: Max Displacement A1AR-CHO membranes
T2 sequence (P30542 1-326): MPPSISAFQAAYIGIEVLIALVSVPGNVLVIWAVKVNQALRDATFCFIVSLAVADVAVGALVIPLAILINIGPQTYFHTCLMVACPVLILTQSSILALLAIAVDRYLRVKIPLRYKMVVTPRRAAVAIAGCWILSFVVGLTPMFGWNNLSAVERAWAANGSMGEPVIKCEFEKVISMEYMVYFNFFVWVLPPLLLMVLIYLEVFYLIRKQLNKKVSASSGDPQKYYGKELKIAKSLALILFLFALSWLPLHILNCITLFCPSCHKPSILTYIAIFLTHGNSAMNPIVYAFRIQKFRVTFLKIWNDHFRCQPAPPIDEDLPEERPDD

[4] = test system: forskolin stimulated cAMP generation; assay: Forskolin stimulated cAMP generation; type: cell-based; details: data not shown
human A2AAR receptor = human A2AAR receptor (Homo sapiens, UniProt P29274); assay: Competition binding with tritiated compound 1; details: for LE (experimental ligand efficiency): ligand binding energy per heavy atom, from Sf9 Ki
human A2AAR receptor, sequence (P29274 whole entry): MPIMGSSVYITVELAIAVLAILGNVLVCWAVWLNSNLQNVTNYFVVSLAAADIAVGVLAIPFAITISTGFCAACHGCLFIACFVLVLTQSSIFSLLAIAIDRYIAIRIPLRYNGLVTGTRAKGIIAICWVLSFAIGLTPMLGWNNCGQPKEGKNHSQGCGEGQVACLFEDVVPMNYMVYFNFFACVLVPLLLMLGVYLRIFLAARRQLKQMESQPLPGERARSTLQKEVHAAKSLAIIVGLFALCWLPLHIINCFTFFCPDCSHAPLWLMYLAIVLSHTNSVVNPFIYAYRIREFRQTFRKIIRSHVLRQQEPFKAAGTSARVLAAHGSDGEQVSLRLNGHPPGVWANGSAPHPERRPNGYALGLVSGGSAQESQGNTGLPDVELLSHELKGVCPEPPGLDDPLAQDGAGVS

[5] = Visible sedimentation in binding assay; details: binding assay buffer

T1 sequence (P29274 whole entry): as above

| SMILES | pKi [2] | Max Displacement at A2AAR-HEK membranes [2] | A2A / A1 selectivity [2] | pKi [3] | inhibition at 10 µM [3] | A2AAR affinity (in words) (human A2AAR receptor; Sf9 membranes) | other results |
| --- | --- | --- | --- | --- | --- | --- | --- |
| Nc1c(C(=O)Nc2ccccc2F)sc2nc3c(cc12)C(=O)CCC3 [compound 6] | 7.22 | 48% | 1.42 fold | 7.05 | 32% | – | A2AAR antagonist functional activity (in words) [1]: the effect does not depend on agonist concentration; effect on forskolin stimulated cAMP generation [4]: inhibited |
| COc1ccc(N)c2c1C(=O)c1ccccc1C2=O [compound 26] | 7.00 | 100% | 2.74 fold | 6.59 | 100% | sub-µM affinity | – |
| N#Cc1c(N)nc2c(C(N)=O)c(Nc3ccccc3)sc2c1-c1ccccc1 [compound 8] | 5.94 | 53% | 0.05 fold | 7.22 | 100% | – | A2AAR antagonist functional activity (in words) [1]: No A2AAR specific activity; also recorded: does not have any functional activity |
| N#Cc1c(N)nc2c(oc3ccccc32)c1-c1ccccc1 [compound 15] | 6.25 | 73% | 0.87 fold | 6.32 | 27% | – | – |
| Nc1c(C(=O)Nc2nccs2)sc2nc3c(cc12)C(=O)CCC3 [compound 14] | 7.22 | 54% | 2.24 fold | 6.85 | 25% | – | – |
| CC(=O)Oc1cccc(-c2nc(C(N)=O)c(N)o2)c1 [compound 46] | – | – | – | – | – | modest affinity | LE (experimental ligand efficiency) (human A2AAR receptor): 0.32 kcal/mol per heavy atom |
| CN1CCc2nc3sc(C(=O)Nc4ccc(Cl)cc4)c(N)c3cc2C1 [compound 10] | < 5.00 | – | – | 5.95 | 28% | – | binding to the HEK293 expressed A2AAR protein (in words) ([2]; HEK293 membranes): did not show any substantial binding |
| CN1CCc2sc3nc(C(=O)Nc4ccc(F)cc4)c(N)cc3c2C1 [compound 7] | – | – | – | – | – | – | pKi (human A2AAR receptor): 5.72 |
| Nc1ccc(-c2nc3c(N)cccc3[nH]2)cc1 [compound 57] | – | – | – | – | – | – | LE (experimental ligand efficiency) (human A2AAR receptor): 0.32 kcal/mol per heavy atom |
| COc1ccc(Cl)cc1Nc1nc(N)nc(-c2oc3ccccc3c2C)n1 [compound 9] | 6.31 | 41% | 2.94 fold | 5.84 | 41% | – | concentration with visible sedimentation of the compound [5]: above 10 µM; A2AAR antagonist functional activity (in words) [1]: one of the highest among the tested ligands; pKi (human A2AAR receptor): 7.52; displacement of the hot ligand (human A2AAR receptor; Sf9 membranes, at 2 µM): up to 80% |

The next lines start with results.

| pKi [2] | Max Displacement at A2AAR-HEK membranes [2] | A2A / A1 selectivity [2] | pKi [3] | inhibition at 10 µM [3] | A2AAR affinity (in words) (human A2AAR receptor; Sf9 membranes) | SMILES | other results |
| --- | --- | --- | --- | --- | --- | --- | --- |
| 6.03 | – | – | 6.72 | 100% | sub-µM affinity | Nc1ccc(Cl)c2c1C(=O)c1ccccc1C2=O [compound 49] | – |
| – | – | – | – | – | modest affinity | Nc1c(C(=O)c2ccccc2)oc2ccc(Br)cc12 [compound 16] | LE (experimental ligand efficiency) (human A2AAR receptor): 0.38 kcal/mol per heavy atom |
| 6.82 | 50% | – | 5.76 | 27% | – | Cc1cccc(NC2=C(N)C(=O)c3ccccc3C2=O)c1 [compound 50] | A2AAR antagonist functional activity (in words) [1]: significant activity; LE (experimental ligand efficiency) (human A2AAR receptor): ~ 0.4 kcal/mol per heavy atom |
| – | – | – | – | – | low-µM affinity | Nc1cccc2c1C(=O)c1ccccc1C2=O [compound 28] | – |
| – | 57% | 0.13 fold | 6.41 | 86% | modest | Cc1ccc(N2C(=O)c3cccc(N)c3C2=O)cc1 [compound 21] | – |
| 6.70 | 100% | 0.75 fold | 6.82 | 100% | sub-µM affinity | Cn1c(=O)cc2c3c(c(N)ccc31)C(=O)c1ccccc1-2 [compound 35] | – |
| 6.96 | 100% | 2.51 fold | 6.55 | 100% | sub-µM affinity | Nc1ccc(N)c2c1C(=O)c1ccccc1C2=O [compound 29] | – |
| – | – | – | – | – | low-µM affinity | Nc1c(Oc2ccccc2)ccc2c1C(=O)c1ccccc1C2=O [compound 20] | – |
| – | – | – | – | – | low-µM affinity | Nc1c(Sc2ccccc2)cc(Sc2ccccc2)c2c1C(=O)c1ccccc1C2=O [compound 38] | – |
| 6.14 | 73% | >10. fold | < 5.00 | – | – | NC1=C(Nc2cccc(C(F)(F)F)c2)C(=O)c2ccccc2C1=O [compound 17] | A2AAR antagonist functional activity (in words) [1]: significant activity; LE (experimental ligand efficiency) (human A2AAR receptor): ~ 0.4 kcal/mol per heavy atom |
